Reference: ChEMBL document CHEMBL1201862, “PubChem BioAssay data set” (2004)
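Cultured in 96-well plates, cells were exposed to test compound for 48 hours across five concentrations. At the GI50, growth is halved.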 Active and inactive are the calls of the source. No stated cut-off is given here; in the data, active = GI50 up to about 1.1 µM and inactive = higher.

Experiments:
Assay in all cases: inhibition of tumour cell growth, NCI panel, 48 h
ACHN = tested on: ACHN
CAKI-1 = tested on: CAKI-1
HCC 2998 = tested on: HCC 2998
HCT-116 = tested on: HCT-116
KM12 = tested on: KM12
MCF7 = tested on: MCF7
MOLT-4 = tested on: MOLT-4
NCI-H226 = tested on: NCI-H226
NCI-H23 = tested on: NCI-H23
NCI-H460 = tested on: NCI-H460
NCI/ADR-RES = tested on: NCI/ADR-RES
OVCAR-3 = tested on: OVCAR-3
RPMI-8226 = tested on: RPMI-8226
SF-268 = tested on: SF-268
SK-MEL-2 = tested on: SK-MEL-2
SK-OV-3 = tested on: SK-OV-3
SNB-19 = tested on: SNB-19
SR = tested on: SR
SW-620 = tested on: SW-620
U-251 = tested on: U-251

Measured: GI50

CCCc1[nH]c2ccccc2c1-c1c(CCC)[nH]c2ccccc12
inactive: ACHN 16.9 µM | CAKI-1 18.6 µM | HCC 2998 22.9 µM | HCT-116 4.6 µM | KM12 16.6 µM | MCF7 4.66 µM | MOLT-4 30.1 µM | NCI-H226 19.2 µM | NCI-H23 8.05 µM | NCI-H460 23.9 µM | NCI/ADR-RES 10.1 µM | OVCAR-3 8.2 µM | RPMI-8226 19.7 µM | SF-268 9.62 µM | SK-MEL-2 14.2 µM | SK-OV-3 24.1 µM | SNB-19 13.5 µM | SR 19 µM | SW-620 6.76 µM | U-251 6.71 µM

CC1OC(n2cc(F)c(=O)[nH]c2=O)CCC1O (stereo not given)
inactive: ACHN > 95.9 µM | CAKI-1 > 91.6 µM | HCC 2998 30.1 µM | HCT-116 78 µM | KM12 > 96.2 µM | MCF7 30.1 µM | MOLT-4 > 100 µM | NCI-H226 > 100 µM | NCI-H23 > 100 µM | NCI-H460 50.8 µM | NCI/ADR-RES > 100 µM | OVCAR-3 > 100 µM | RPMI-8226 56.1 µM | SF-268 > 100 µM | SK-MEL-2 > 100 µM | SK-OV-3 > 100 µM | SNB-19 > 100 µM | SR > 94 µM | SW-620 > 100 µM | U-251 > 100 µM

CC(CO)(CO)N1C(=O)C2C3C=CC(C3)C2C1=O (stereo not given)
inactive: ACHN > 100 µM | CAKI-1 > 100 µM | HCC 2998 > 100 µM | HCT-116 > 100 µM | KM12 > 100 µM | MCF7 > 100 µM | MOLT-4 > 100 µM | NCI-H226 > 100 µM | NCI-H23 > 100 µM | NCI-H460 > 100 µM | NCI/ADR-RES > 100 µM | OVCAR-3 > 100 µM | RPMI-8226 > 100 µM | SF-268 > 100 µM | SK-MEL-2 > 100 µM | SK-OV-3 > 100 µM | SNB-19 > 100 µM | SR > 100 µM | SW-620 > 100 µM | U-251 > 100 µM
